Patent US8440825B2, “Fumaric acid salt of varenicline” (Medichem S.A., priority 2008, dated 2013)
Structures can show the parent of a compound that is named as a salt.

Assays:
[1] = Solubility in water of varenicline salts; assay type: physicochemical
[2] = Stability studies of varenicline crystalline salts (one year storage, HPLC and XRD); assay type: physicochemical; details: for Purity (HPLC) % 1 year later: after one year at room temperature; for Purity (HPLC) % 1 year later / Purity (HPLC) % initial / XRD result 1 year later: normal pressure, ambient atmosphere; for Stability in terms of chemical purity and polymorphic form (in words): after one year of storage; for XRD result Initial: initial polymorphic form, before storage; for Purity (HPLC) % initial: before storage at room temperature; for XRD result 1 year later: polymorphic form after one year at room temperature
Description: The varenicline crystalline salts were stored under standard conditions (i.e. room temperature, normal pressure, ambient atmosphere). The samples were analyzed after one year by HPLC and XRD.

Row | Molecule | Solubility in water [1] | Purity (HPLC) % 1 year later [2] | XRD result Initial [2] | Purity (HPLC) % initial [2] | XRD result 1 year later [2] | further results
1 | varenicline fumarate [Example 2] | >20 mg/mL | 99.76% | Form I | 99.84% | Form I | Solubility in water (in words) [1]: highly soluble; Stability in terms of chemical purity and polymorphic form (in words) [2]: highly stable in terms of chemical purity and of polymorphic form
2 | varenicline L-malate [Example 7] | >20 mg/mL |  |  |  |  | Solubility in water (in words) [1]: highly soluble; Purity (HPLC) % 1 year later ([2]; listed as Malate Form I): 99.47%; Stability in terms of chemical purity and polymorphic form (in words) ([2]; listed as varenicline L-malate Form I): stable in terms of chemical purity; XRD result Initial ([2]; listed as Malate Form I): Form I; Purity (HPLC) % initial ([2]; listed as Malate Form I): 99.95%
3 | varenicline L-malate [Malate Form II] |  | 99.66% | Form II | 99.94% | Form II | Stability in terms of chemical purity and polymorphic form (in words) ([2]; listed as varenicline L-malate Form II): highly stable in terms of chemical purity and of polymorphic form
4 | varenicline S-2-pyrrolidinon-5-carboxylate [Example 14] |  | 99.83% | Form I | 99.99% | Form I | Stability in terms of chemical purity and polymorphic form (in words) [2]: highly stable in terms of chemical purity and in terms of polymorphic form
5 | O=C(O)CCCC(=O)O.c1cnc2cc3c(cc2n1)C1CNCC3C1 [Example 3, varenicline glutarate] |  | 97.90% | Form I | 98.77% |  | 
6 | varenicline succinate [Example 15] | >20 mg/mL |  |  |  |  | 
7 | varenicline galactarate [Example 16] | >20 mg/mL | 99.71% | Form I | 99.91% | Form I | Solubility in water (in words) [1]: highly soluble; Stability in terms of chemical purity and polymorphic form (in words) [2]: highly stable in terms of chemical purity and of polymorphic form
8 | O=C(O)CCCCC(=O)O.c1cnc2cc3c(cc2n1)C1CNCC3C1.c1cnc2cc3c(cc2n1)C1CNCC3C1 [Example 1, varenicline hemi-adipate] |  | 99.77% | Form I | 99.89% | Form I | Stability in terms of chemical purity and polymorphic form (in words) [2]: highly stable in terms of chemical purity and of polymorphic form
9 | varenicline maleate [Example 8] | >20 mg/mL | 99.90% | Form I | 100% | Form I | Solubility in water (in words) [1]: highly soluble; Stability in terms of chemical purity and polymorphic form (in words) [2]: highly stable in terms of chemical purity and of polymorphic form
10 | O=C(O)CC(=O)O.c1cnc2cc3c(cc2n1)C1CNCC3C1 [Example 9, varenicline malonate] |  | 99.45% | Form I | 99.91% |  | 
11 | c1cnc2cc3c(cc2n1)[C@@H]1CNC[C@H]3C1 [Hydrochloride, varenicline hydrochloride, reference compound] |  | 99.68% | Form II | 99.91% | Forms II + III | 
12 | CC(O)C(=O)O.c1cnc2cc3c(cc2n1)C1CNCC3C1 (racemic) [Example 17, varenicline DL-lactate] |  | 98.48% | Form I | 98.98% |  | 
13 | varenicline phosphate [Phosphate Form II] |  | 99.93% | Form II | 99.89% | Form II | 
14 | O=C(O)C(O)c1ccccc1.c1cnc2cc3c(cc2n1)C1CNCC3C1 (racemic) [Example 10, varenicline DL-mandelate] |  | 95.55% | Form I | 99.93% |  | 
15 | varenicline glycolate [Example 4] |  | 99.57% | Form I | 99.95% |  | 
16 | varenicline oxalate [Example 12] | >20 mg/mL | 99.72% | Form I | 99.91% |  | 
17 | c1cnc2cc3c(cc2n1)[C@@H]1CNC[C@H]3C1 [Example 5, varenicline hydrochloride] |  |  |  |  |  | solubility [1]: > 20 mg/mL
18 | varenicline phosphate [Example 13] | >20 mg/mL |  |  |  |  | Solubility in water (in words) [1]: highly soluble; Purity (HPLC) % 1 year later ([2]; listed as Phosphate Form I): 99.89%; Stability in terms of chemical purity and polymorphic form (in words) [2]: highly stable in terms of chemical purity and in terms of polymorphic form; XRD result Initial ([2]; listed as Phosphate Form I): Form I; Purity (HPLC) % initial ([2]; listed as Phosphate Form I): 100%; XRD result 1 year later ([2]; listed as Phosphate Form I): Form I
19 | O=S(=O)(O)CCS(=O)(=O)O.c1cnc2cc3c(cc2n1)C1CNCC3C1.c1cnc2cc3c(cc2n1)C1CNCC3C1 [Example 18, Varenicline Hemi-1,2-Ethane Disulfonate] |  | 99.36% | Form I | 99.97% |  | 
20 | O=C(O)CCC(=O)C(=O)O.c1cnc2cc3c(cc2n1)C1CNCC3C1 [Example 6, varenicline α-ketoglutarate] |  | 98.45% | Form I | 99.71% |  | 
21 | varenicline di-mesylate [Example 11] | >20 mg/mL | 99.28% | Form I | 99.99% |  | 
